The record followed here is patent EP1379634B1 (THE UNIVERSITY OF GEORGIA RESEARCH FOUNDATION, INC., priority 2001, dated 2002).

Residues, ends and D or L forms follow the SMILES beside them. *: point of attachment. Cbz = O=C(OCc1ccccc1)*; CH2F = FC*

The target of one assay is T1, Cathepsin H (Homo sapiens, UniProt P09668).
T1 sequence (P09668 98-335): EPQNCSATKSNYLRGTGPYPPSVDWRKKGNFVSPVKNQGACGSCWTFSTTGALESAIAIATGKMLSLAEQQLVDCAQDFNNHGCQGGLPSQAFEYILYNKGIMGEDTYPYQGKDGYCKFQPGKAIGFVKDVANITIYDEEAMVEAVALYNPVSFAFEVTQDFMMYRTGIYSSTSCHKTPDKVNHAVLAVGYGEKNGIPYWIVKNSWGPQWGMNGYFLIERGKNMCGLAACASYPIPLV
The assay can be described thus: Selectivity test (Steps VI and IX), Cathepsin H. It counts as biochemical. The settings on record: vehicle 4 X 10^-5 M; pH 6.8, substrate L-R-AFC; 40 µM. As for the experimental part:
In order to perform the assay, the vehicle (for Step VI) or inhibitor (for Step IX) were incubated with the appropriate substrate in the correct assay buffer and allowed to equilibrate. Subsequently, the protease was added, and the assay was allowed to incubate for an appropriate time. The concentrations used in this experiment were as follows: Vehicle was set up at 4 X 10^-5 M in final assay buffer; Inhibitor was set up at 3 X 10^-10 M in the final assay buffer. Preferably the dosages employed should be the minimal amount of vehicle or inhibitor necessary to induce inhibition. […] Substrates were set up based upon the preferred substrate for cleavage of the particular enzyme.
Positive controls were set up similarly as described for test controls, except that a solvent blank was added in substitution for the inhibitor or vehicle (in a volume equal to the volume of inhibitor or vehicle addition). All of the inhibitors and vehicles could be dissolved in dimethylsulfoxide (DMSO), and therefore, this was the solvent of choice. Negative controls were set up by adding the inhibitor or vehicle and the preferred substrates in a tube without the protease. […]
Percent inhibition was calculated as: %Inhibition = ((AFC positive for "SI"−AFC negative for "SI")−(AFC test−AFC negative for "SI"))/(AFC positive for "SI"−AFC negative for "SI") × 100 [formula] […]

Assay [1] concerns Taenia crassiceps cysts. The assay is described as follows: Scanning electron microscopy of cyst surfaces removed from treated mice. In kind it is in vivo. As to conditions: cysts removed from treated BALB/c mice. From the text: • Figure 1. Free energy diagrams for various profiles and scenarios of enzyme catalysis; from Murphy, 1995. Biochemistry. 34(14):4507-4510: (a) Free energy diagrams for different concentrations of substrate S in catalyzed and in uncatalyzed reactions. Left panel: Profile I. S<Km such that enzyme is in a "loose" binding configuration with substrate. Right panel: Profile II. S>Km such that the enzyme is in a "tight" binding configuration with the substrate. Nomenclature below the figure indicates derivation of various free energy constants which are referred to in the text. […] In this scenario, the transition state is decreased from TSC1 to TSC2 resulting in a net increase of ΔGB from situation 1 to situation 2. […] Since ΔGES is unchanged in this plot, 100% of the additional binding energy is utilized for catalysis. This property and the increase in ΔAGb is the definition of a catalytic event driven by transition state stabilization, with the latter being the defining catalytic parameter; (c) free energy diagram for catalysis driven by ground state destabilization for a Profile II scenario where ES is decreased and TSC is not changed. From the left panel to the right panel, ES is decreased, whereas TS remains unchanged. Consequently, ΔΔGb remains constant although catalysis is noted (thus the free energy of enzyme/transition state binding is unchanged). […]

Assay [2] relates to Taenia crassiceps cysts. The assay is described as follows: Short-term protection of BALB/c mice from cysticercosis infection. The settings on record: repeat study, BALB/c mice. It counts as in vivo.

As usually defined, the % inhibition is the share of the control response that was lost under treatment. A higher % inhibition goes with a response far below the control. Regarding Mu-Leu-Tyr-AFC [Mu-LY-AFC], the “% inhibition” value on Cathepsin H turned out to be 0%.
In the case of `CC(C)C[C@H](NC(=O)OCc1ccccc1)C(=O)N[C@@H](CC(C)C)C(=O)N[C@@H](Cc1ccc(O)cc1)C(=O)CF` [Z-LLY-FMK, Z-Leu-Leu-Tyr-FMK] (Cbz-Leu-Leu-Tyr-CH2F), the “Immune cells observed by SEM on cyst surfaces” value in the assay on Taenia crassiceps cysts [1] is given as “presence of adherent immune cells”. Moreover, the “protection from cysticercosis infection, subsequent identical prophylactic experiment” value in the assay with Taenia crassiceps cysts [2] is 75%-90%.
